Earlier results, collected in patent US20250049835A1, “COMPOSITIONS FOR ALTERING CYCLIC ADP-RIBOSE SECONDARY MESSENGER SIGNALLING” (Yeda Research and Development Co. Ltd., priority 2022, published 2025).

Target: T1, Bacillus cereus MSX-D12 ThsA enzyme (Bacillus cereus, UniProt J8G6Z1)
T1 construct: The reporter enzyme ThsA was expressed and purified as described previously; made in house
T1 sequence (J8G6Z1 1-476): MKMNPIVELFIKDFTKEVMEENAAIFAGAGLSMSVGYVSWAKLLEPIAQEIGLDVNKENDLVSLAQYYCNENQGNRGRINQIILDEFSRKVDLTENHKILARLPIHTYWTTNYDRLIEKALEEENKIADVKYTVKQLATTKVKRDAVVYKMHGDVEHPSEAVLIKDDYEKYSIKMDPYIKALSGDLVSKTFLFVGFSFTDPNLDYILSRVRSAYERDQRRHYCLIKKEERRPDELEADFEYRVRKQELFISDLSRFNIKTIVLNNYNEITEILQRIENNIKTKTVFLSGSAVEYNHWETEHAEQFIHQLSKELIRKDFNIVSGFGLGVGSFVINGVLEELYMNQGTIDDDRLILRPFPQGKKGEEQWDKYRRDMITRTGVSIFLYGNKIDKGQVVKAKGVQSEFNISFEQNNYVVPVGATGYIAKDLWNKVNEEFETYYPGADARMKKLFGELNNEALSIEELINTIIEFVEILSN
Settings: previously shown

Nc1ncnc2c1ncn2[C@@H]1O[C@@H]2COP(=O)(O)OP(=O)(O)OC[C@H]3O[C@@H](OC1C2O)C(O)C3O (stereo partly shown) [1′-2′ gcADPR]
Activation of ThsA by cADPR isomer produced by plant TIR proteins: can activate the Theoris effector ThsA
